From patent US8895585B2, “Nicotinamide derivative or salt thereof” (FUJIFILM Corporation, priority 2010, dated 2014) come the findings set out here.

Each structure is given as a SMILES string. Some results are limits rather than exact numbers.

By IC50 is commonly meant the concentration that gives 50% inhibition.

One test deals with T1, glutathione S-transferase (GST)-fused full-length human Syk protein (Homo sapiens, UniProt P43405).
T1 construct: (GST)-fused full-length human Syk protein; GST (glutathione S-transferase); purchased Carna Biosciences
Kind of test: Syk enzyme assay. It is filed as biochemical. The following applies: Syk enzyme assay, Test Example 1; read-out: IC50 of Syk-inhibitory activity. In outline:
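GST-tagged full-length human Syk (baculovirus) preincubated with compound 15 min at room temperature (pH 7.0, 10 mM MgCl2), then reacted 40 min with 0.4 μM biotinylated peptide substrate and 27 μM ATP (final). Phosphorylation read by HTRF (615/665 nm) after EDTA stop; IC50 reported.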
As for `NC(=O)c1cc(F)c(NC2CCCCC2N)nc1Nc1cncc(NC(=O)c2ccccc2Cl)c1` (stereo not shown) [Example 027-007], the IC50 lay within 10 to 50 nM. As for `NC(=O)c1cc(F)c(NC2CCCCC2N)nc1Nc1ccc(OCCO)nc1` (stereo not shown) [Example 002-079], the IC50 lay within 50 to 100 nM. Same read-out and setting: then `COc1ccc(C(=O)Nc2cncc(Nc3nc(NC4CCCCC4N)c(F)cc3C(N)=O)c2)c(OC)c1` (stereo not shown) [Example 027-019], with 10 to 50 nM; and `COc1cc(Nc2nc(NCc3ccccc3N)c(F)cc2C(N)=O)cc(OC)c1` [Example 016-014], with 100 to 1000 nM. On the same count and under the same terms, under `COc1ccc(-c2cncc(Nc3nc(N[C@@H]4CCCC[C@@H]4N)c(F)cc3C(N)=O)c2)cn1` (relative stereo) [Example 004-231, 6-((cis-2-aminocyclohexyl)amino)-5-fluoro-2-((6′-methoxy-[3,3′-bipyridin]-5-yl)amino)nicotinamide] stands 10 to 50 nM.

In the case of `C[C@H](N)[C@@H](CC1CC1)Nc1nc(Nc2cccc3c2c(F)nn3CCF)c(C(N)=O)cc1F` [Example 006-491, 6-(((2R,3S)-3-amino-1-cyclopropylbutan-2-yl)amino)-5-fluoro-2-((3-fluoro-1-(2-fluoroethyl)-1H-indazol-4-yl)amino)nicotinamide], the IC50 was 10 to 50 nM. `CN1CCN(c2cncc(Nc3nc(N[C@@H]4CCCC[C@@H]4N)c(F)cc3C(N)=O)c2)CC1` (relative stereo) [Example 004-052]: the IC50 lay within 10 to 50 nM. Take `NC(=O)c1cc(F)c(NC2CCCCC2N)nc1Nc1cncc(-c2cn[nH]c2)c1` (stereo not shown) [Example 002-069]: the IC50 is below 10 nM. The same measure, in the same setting: under `CC(=O)Nc1cccc(-c2cncc(Nc3nc(N[C@@H]4CCCC[C@@H]4N)c(F)cc3C(N)=O)c2)c1` [Example 004-223] stands below 10 nM; under `NC(=O)c1cc(F)c(NCc2cnc[nH]2)nc1Nc1cnc2ccccc2c1` [Example 012-020], 100 to 1000 nM; under `COc1ccnc2cc(Nc3nc(NC4CCCCC4N)c(F)cc3C(N)=O)ccc12` (stereo not shown) [Example 002-089], 10 to 50 nM. On the same count and under the same terms, under `NC(=O)c1cc(F)c(N[C@@H]2CCCC[C@@H]2N)nc1Nc1cnc2c(F)cccc2c1` (relative stereo) [Example 004-135, 6-(cis-2-aminocyclohexylamino)-5-fluoro-2-((8-fluoroquinolin-3-yl)amino)nicotinamide] stands 10 to 50 nM. In the case of `COc1cccc(C(=O)Nc2cncc(Nc3nc(NC4CCCCC4N)c(F)cc3C(N)=O)c2)c1` (stereo not shown) [Example 027-028], the IC50 was in the range of 10 to 50 nM. Still for that read-out and setting: then `NC(=O)c1cc(F)c(N[C@@H]2CCCC[C@@H]2N)nc1Nc1cncc(-c2ccccc2OCC2CC2)c1` [Example 004-184], with 10 to 50 nM; and `COCCOc1ccc(-c2cncc(Nc3nc(N[C@@H]4CCCC[C@@H]4N)c(F)cc3C(N)=O)c2)cc1` (relative stereo) [Example 004-111, 6-(cis-2-aminocyclohexylamino)-5-fluoro-2-((5-(4-(2-methoxyethoxy)phenyl)pyridin-3-yl)-amino)nicotinamide], with below 10 nM.

`NC(=O)c1cc(F)c(N[C@@H]2CCCC[C@@H]2N)nc1Nc1ccc2nc(OCCCN3CCCC3=O)ccc2c1` (relative stereo) [Example 004-200, 6-(cis-2-aminocyclohexylamino)-5-fluoro-2-((2-(3-(2-oxopyrrolidin-1-yl)propoxy)quinolin-6-yl)amino)nicotinamide]: the IC50 was below 10 nM. Still for that read-out and setting: then `COCCOc1cccc2cc(Nc3nc(N[C@@H]4CCCC[C@@H]4N)c(F)cc3C(N)=O)cnc12` (relative stereo) [Example 004-121, 6-(cis-2-aminocyclohexylamino)-5-fluoro-2-((8-(2-methoxyethoxy)quinolin-3-yl)amino)-nicotinamide], with below 10 nM; and `COC(C)CCOc1ccc2cc(Nc3nc(NC4CCCCC4N)c(F)cc3C(N)=O)ccc2n1` (stereo not shown) [Example 002-099], with below 10 nM; and `Cn1cc(Nc2nc(NC3CCCCC3N)c(F)cc2C(N)=O)ccc1=O` (stereo not shown) [Example 002-202], with 100 to 1000 nM. On the same count and under the same terms, then `NC(=O)c1cc(Nc2nc(N[C@@H]3CCCC[C@@H]3N)c(F)cc2C(N)=O)ccn1` [Example 029-012], with below 10 nM; and `CC(C)COCCOc1nccc2cc(Nc3nc(N[C@@H]4CCCC[C@@H]4N)c(F)cc3C(N)=O)ccc12` (relative stereo) [Example 004-170, 6-(cis-2-aminocyclohexylamino)-5-fluoro-2-((1-(2-isobutoxyethoxy)isoquinolin-6-yl)amino)-nicotinamide], with below 10 nM. Consider `CCOCCOCCNc1cccc2cc(Nc3nc(N[C@@H]4CCCC[C@@H]4N)c(F)cc3C(N)=O)cnc12` [Example 004-133], for which the IC50 was in the range of 10 to 50 nM. `Cc1ccc(-c2cncc(Nc3nc(N[C@@H]4CCCC[C@@H]4N)c(F)cc3C(N)=O)c2)cc1` (relative stereo) [Example 004-100, 6-(cis-2-aminocyclohexylamino)-5-fluoro-2-((5-(4-methylphenyl)pyridin-3-yl)amino)-nicotinamide]: the IC50 was below 10 nM. Still for that read-out and setting: then `CCC(Nc1nc(Nc2ccc3ncccc3c2)c(C(N)=O)cc1F)[C@@H](N)CC` (stereo partly drawn) [Example 006-150, 6-(((4S)-4-aminohexan-3-yl)amino)-5-fluoro-2-(quinolin-6-ylamino)nicotinamide], with 10 to 50 nM; and `CC(C)(CN)Nc1nc(Nc2ccc3ncccc3c2)c(C(N)=O)cc1F` [Example 014-012, 6-((1-amino-2-methylpropan-2-yl)amino)-5-fluoro-2-((quinolin-6-yl)amino)nicotinamide], with 50 to 100 nM; and `NC(=O)c1cc(F)c(N[C@@H]2CCCC[C@@H]2N)nc1Nc1cnc(N2CCOCC2)c(F)c1` (relative stereo) [Example 004-216, 6-(cis-2-aminocyclohexylamino)-5-fluoro-2-((5-fluoro-6-morpholinopyridin-3-yl)amino)nicotinamide], with 10 to 50 nM. Still for that read-out and setting: under `NC(=O)c1cc(F)c(N[C@@H]2CCCC[C@@H]2N)nc1Nc1cc(OCc2ccccc2)c2ncccc2c1` (relative stereo) [Example 004-140, 6-(cis-2-aminocyclohexylamino)-2-((8-(benzyloxy)quinolin-6-yl)amino)-5-fluoronicotinamide] stands 10 to 50 nM; under `NC(=O)c1cc(F)c(NCCO)nc1Nc1ccc2ncccc2c1` [Example 012-021], below 10 nM; under `NC(=O)c1cc(F)c(NC2CCCCC2N)nc1Nc1ccnc(-c2ccc3c(c2)NC(=O)CO3)c1` (stereo not shown) [Example 002-178], below 10 nM. The same measure, in the same setting: under `NC(=O)c1cc(F)c(NC2CCCCC2N)nc1Nc1cnc2ccccc2c1` (stereo not shown) [Example 008-004] stands below 10 nM; under `COc1cc(Nc2nc(N[C@@H]3COCC[C@@H]3N)c(F)cc2C(N)=O)ccn1` [Example 006-532, 6-(((3S,4S)-4-aminotrahydro-2H-pyran-3-yl)amino)-5-fluoro-2-((2-methoxypyridin-4-yl)amino)nicotinamide], 100 to 1000 nM; under `CCOCCOc1ccc2cc(Nc3nc(NC4CCCCC4N)c(F)cc3C(N)=O)ccc2n1` (stereo not shown) [Example 002-107], below 10 nM. Regarding `CCC[C@@H](Nc1nc(Nc2ccc3ncccc3c2)c(C(N)=O)cc1F)C(N)=O` [Example 012-038], the IC50 was 10 to 50 nM. As for `NC[C@@H](CC1CC1)Nc1nc(Nc2cncc(-c3ccccc3)c2)c(C(N)=O)cc1F` [Example 006-283, (R)-6-((1-amino-3-cyclopropylpropan-2-yl)amino)-5-fluoro-2-((5-phenylpyridin-3-yl)amino)nicotinamide], the IC50 is 10 to 50 nM. The same measure, in the same setting: then `NC(=O)c1cc(F)c(NC2CCCCC2N)nc1Nc1cncc(NC(=O)c2cccc(F)c2)c1` (stereo not shown) [Example 027-027], with 10 to 50 nM; and `COCCNc1cc(Nc2nc(N[C@@H]3CCCC[C@@H]3N)c(F)cc2C(N)=O)cc2cccnc12` (relative stereo) [Example 004-137, 6-(cis-2-aminocyclohexylamino)-5-fluoro-2-((8-(2-methoxyethylamino)quinolin-6-yl)-amino)nicotinamide], with below 10 nM.

The same test, now with this note: read-out: Syk-inhibitory activity (IC50).
For `NC(=O)c1cc(F)c(N[C@@H]2CCCC[C@@H]2N)nc1Nc1cncc(NC(=O)c2ccccc2)c1` (relative stereo) [Example 26, 6-(cis-2-aminocyclohexylamino)-2-(5-benzoylaminopyridin-3-ylamino)-5-fluoronicotinamide], the IC50 is at most 1000 nM.

With `COc1cc(Nc2nc(NCCc3c[nH]c4ccccc34)c(F)cc2C(N)=O)cc(OC)c1` [Example 19, 2-(3,5-dimethoxyphenylamino)-5-fluoro-6-(2-(1H-indole-3-yl)ethylamino)nicotinamide], the IC50 was at most 1000 nM. As to `COc1cc(Nc2nc(NC(C)C(N)=O)c(F)cc2C(N)=O)cc(OC)c1` (stereo not shown) [Example 33-1, 6-((2-amino-1-methyl-2-oxoethyl)amino)-2-(3,5-dimethoxyphenylamino)-5-fluoronicotinamide], the IC50 is at most 1000 nM. On to `COc1ccc(Nc2nc(N[C@@H]3CCCC[C@@H]3N)c(F)cc2C(N)=O)cn1` (relative stereo) [Example 2-10, 6-(cis-2-aminocyclohexylamino)-5-fluoro-2-((6-methoxypyridin-3-yl)amino)nicotinamide], for which the IC50 is at most 1000 nM. Take `NCCNc1nc(Nc2cccc(C(=O)Nc3ccccc3)c2)c(C(N)=O)cc1F` [Example 30, 6-(2-aminoethylamino)-2-(3-(anilinocarbonyl)phenylamino)-5-fluoronicotinamide]: the IC50 was at most 1000 nM. On the same count and under the same terms, under `Cn1ncc2ccc(Nc3nc(NCCN)c(F)cc3C(N)=O)cc21` [Example 6-27, 6-((2-aminoethyl)amino)-5-fluoro-2-((1-methyl-1H-indazol-6-yl)amino)nicotinamide] stands at most 1000 nM; under `COc1cc(Nc2nc(NC(C(N)=O)C(C)C)c(F)cc2C(N)=O)cc(OC)c1` (stereo not shown) [Example 32, 6-(1-aminocarbonyl-2-methylpropylamino)-2-(3,5-dimethoxyphenylamino)-5-fluoro nicotinamide], at most 1000 nM.
